Reference: US12441768B2, “Compositions and methods for treating endometriosis” (EndoMet Biosciences, Inc., priority 2018, dated 2025)
pEC50, pKd: −log10 of the molar value. Where a SMILES comes first, the peptide text is derived from it.

How the values were obtained:
[1] = % Viability non-Wnt responsive cells
[2] = biological target: Wnt-responsive promoter (TCF/LEF); experiment: Wnt-dependent luciferase reporter assay; assay type: cell-based, murine
Outline: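 EC50 (uM) derived from inhibition of luminescence in Wnt3a-stimulated murine 3T3 cells expressing luciferase under a TCF/LEF promoter, with peptides added across a concentration range and vehicle as control.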

β-catenin = biological target: T1, β-catenin (Homo sapiens, UniProt P35222); experiment: KD50 measurement using competitive fluorescence polarization (FP) with labelled TCF4; assay type: binding; conditions: fluorescence polarization, β-catenin; for pKd: read-out: β-Cat FP KD
T1 sequence (P35222 1-781): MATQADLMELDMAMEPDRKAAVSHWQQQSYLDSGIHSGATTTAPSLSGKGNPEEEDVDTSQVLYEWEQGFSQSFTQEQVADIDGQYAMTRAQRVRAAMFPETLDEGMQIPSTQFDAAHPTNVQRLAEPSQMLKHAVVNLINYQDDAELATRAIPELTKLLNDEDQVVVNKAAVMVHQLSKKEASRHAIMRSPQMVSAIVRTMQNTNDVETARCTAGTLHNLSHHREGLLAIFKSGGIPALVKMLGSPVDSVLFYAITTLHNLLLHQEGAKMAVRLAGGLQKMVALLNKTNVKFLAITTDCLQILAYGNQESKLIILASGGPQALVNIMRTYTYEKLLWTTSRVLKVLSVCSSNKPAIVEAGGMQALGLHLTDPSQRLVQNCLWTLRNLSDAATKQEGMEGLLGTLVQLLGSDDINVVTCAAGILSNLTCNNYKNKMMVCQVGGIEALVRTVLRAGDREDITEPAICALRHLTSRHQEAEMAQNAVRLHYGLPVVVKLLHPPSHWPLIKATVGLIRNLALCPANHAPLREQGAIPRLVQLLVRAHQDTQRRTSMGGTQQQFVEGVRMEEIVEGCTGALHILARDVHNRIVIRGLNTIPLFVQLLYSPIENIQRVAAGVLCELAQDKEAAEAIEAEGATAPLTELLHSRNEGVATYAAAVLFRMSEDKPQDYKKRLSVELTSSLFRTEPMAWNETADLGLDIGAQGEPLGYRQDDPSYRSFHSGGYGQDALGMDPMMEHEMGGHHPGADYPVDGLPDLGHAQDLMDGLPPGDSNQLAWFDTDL
Outline: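 Polarization readout (470 nm excitation, 520 nm emission) tracks loss of labelled TCF4 binding to β-catenin as test compound competes. Conditions were 5 nM tracer, 100 nM β-catenin, room temperature, compound serially diluted from 10 nM to 30 uM; run in triplicate experiments.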

Row | SMILES | pEC50 [2] | pKd (β-catenin) | β-Cat FP Hill slope (β-catenin) | viability [1]
1 | CC[C@H](C)[C@H](NC(=O)[C@H](C)NC(=O)[C@H](Cc1ccccc1)NC(=O)[C@H](Cc1c[nH]c2ccccc12)NC(=O)[C@@H](N)CCSC)C(=O)N[C@@H](CO)C(=O)N[C@@H](Cc1ccccc1)C(=O)N[C@@H](Cc1c[nH]c2ccccc12)C(=O)NCC(=O)O [compound 157] (H-MWFAISFWG-OH) | > 5.12 | < 4.52 | – | 99.9%
2 | CSCC[C@H](N)C(=O)N[C@@H](Cc1c[nH]c2ccccc12)C(=O)N[C@@H](Cc1ccccc1)C(=O)N[C@@H](CC(C)C)C(=O)N[C@@H](C)C(=O)N[C@@H](CO)C(=O)N[C@@H](Cc1ccccc1)C(=O)N[C@@H](Cc1c[nH]c2ccccc12)C(=O)NCC(=O)O [compound 158] (H-MWFLASFWG-OH) | 4.82 to 5.12 | < 4.52 | – | 95.6%
3 | CC[C@H](C)[C@H](NC(=O)[C@H](CC(C)C)NC(=O)[C@H](Cc1ccccc1)NC(=O)[C@H](Cc1c[nH]c2ccccc12)NC(=O)[C@@H](N)CCSC)C(=O)N[C@@H](CO)C(=O)N[C@@H](C)C(=O)N[C@@H](Cc1c[nH]c2ccccc12)C(=O)NCC(=O)O [compound 160] (H-MWFLISAWG-OH) | > 5.12 | < 4.52 | – | 102%
4 | CC[C@H](C)[C@H](NC(=O)[C@H](CC(C)C)NC(=O)[C@H](Cc1ccccc1)NC(=O)[C@H](Cc1c[nH]c2ccccc12)NC(=O)[C@@H](N)CCSC)C(=O)N[C@@H](CO)C(=O)N[C@@H](Cc1ccccc1)C(=O)N[C@@H](C)C(=O)NCC(=O)O [compound 161] (H-MWFLISFAG-OH) | 4.65 to 4.82 | < 4.52 | – | 103%
5 | CCCC[C@H](N)C(=O)N[C@@H](Cc1c[nH]c2ccccc12)C(=O)N[C@@H](Cc1ccccc1)C(=O)N[C@@H](CC(C)C)C(=O)N[C@H](C(=O)N[C@@H](CS)C(=O)N[C@@H](Cc1ccccc1)C(=O)N[C@@H](Cc1c[nH]c2ccccc12)C(=O)NCC(=O)O)[C@@H](C)CC [compound 164] (HELM PEPTIDE1{[Nle].W.F.L.I.C.F.W.G}$$$$V2.0) | > 5.12 | 6.00 to 6.40 | 0.7 | 100%

Continued, in another order:

Row | pEC50 [2] | pKd (β-catenin) | β-Cat FP Hill slope (β-catenin) | SMILES | viability [1]
6 | > 5.12 | < 4.52 | – | CC[C@H](C)[C@H](NC(=O)[C@H](CC(C)C)NC(=O)[C@H](Cc1ccccc1)NC(=O)[C@H](Cc1c[nH]c2ccccc12)NC(=O)[C@@H](N)CCSC)C(=O)N[C@@H](C)C(=O)N[C@@H](Cc1ccccc1)C(=O)N[C@@H](Cc1c[nH]c2ccccc12)C(=O)NCC(=O)O [compound 159] (H-MWFLIAFWG-OH) | 107%
7 | 4.82 to 5.12 | < 4.52 | – | CC[C@H](C)[C@H](NC(=O)[C@H](CC(C)C)NC(=O)[C@H](Cc1ccccc1)NC(=O)[C@H](Cc1c[nH]c2ccccc12)NC(=O)[C@@H](N)CCSC)C(=O)N[C@@H](CO)C(=O)N[C@@H](Cc1ccccc1)C(=O)N[C@@H](Cc1c[nH]c2ccccc12)C(=O)N[C@@H](C)C(=O)O [compound 162] (H-MWFLISFWA-OH) | 104%
8 | > 5.12 | < 4.52 | – | CC[C@H](C)[C@H](NC(=O)[C@H](CC(C)C)NC(=O)[C@H](Cc1ccccc1)NC(=O)[C@H](Cc1c[nH]c2ccccc12)NC(=O)[C@@H](N)CCSC)C(=O)N[C@@H](Cc1c[nH]cn1)C(=O)N[C@@H](Cc1ccccc1)C(=O)N[C@@H](Cc1c[nH]c2ccccc12)C(=O)NCC(=O)O [compound 163] (H-MWFLIHFWG-OH) | 100%
9 | > 5.12 | > 6.40 | 2.99 | CC[C@H](C)[C@H](NC(=O)[C@H](CC(C)C)NC(=O)[C@@H](NC(=O)[C@H](Cc1c[nH]c2ccccc12)NC(=O)[C@H](CCSC)NC(C)=O)[C@@H](C)CC)C(=O)N[C@@H](CO)C(=O)N[C@@H](Cc1ccccc1)C(=O)N[C@@H](Cc1c[nH]c2ccccc12)C(=O)NCC(=O)O [compound 165] (Ac-MWILISFWG-OH) | 102%
